The record followed here is ChEMBL document CHEMBL4610049, “Structural modification of the aryl sulfonate ester of cjoc42 for enhanced gankyrin binding and anti-cancer activity” (Bioorg Med Chem Lett, 2020).

Active and inactive are the calls of the source. The rule behind the calls is not given here.

In test [1] the target is T1, 26S proteasome non-ATPase regulatory subunit 10 (Homo sapiens) (UniProt O75832).
T1 sequence (whole entry): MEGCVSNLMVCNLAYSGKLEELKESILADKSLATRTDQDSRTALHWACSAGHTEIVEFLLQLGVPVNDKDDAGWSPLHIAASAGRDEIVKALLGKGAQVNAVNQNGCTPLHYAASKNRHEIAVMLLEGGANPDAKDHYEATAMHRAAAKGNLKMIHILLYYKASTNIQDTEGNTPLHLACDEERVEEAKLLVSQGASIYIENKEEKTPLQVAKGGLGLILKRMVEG
Kind of test: Binding affinity to gankyrin (unknown origin) assessed as fold increase in change in melting temperature at 300 uM by thermal shift assay relative to control.

In test [2] the test system is Hep 3B2. Kind of test: Antiproliferative activity against human Hep3B cells assessed as reduction in cell viability incubated for 72 hrs by MTT assay. It counts as functional, cell-based. On the technique in general: Formazan colour is commonly taken as a measure of viable cells.
In test [3] the test system is HepG2. Nature of the test: Antiproliferative activity against human HepG2 cells assessed as reduction in cell viability incubated for 72 hrs by MTT assay. The conditions noted are these: HepG2, 72 h. It counts as functional, cell-based.
Test [4] deals with HepG2. Kind of test: Antiproliferative activity against human HepG2 cells assessed as reduction in cell viability at 50 uM incubated for 72 hrs by MTT assay relative to control. It counts as functional. The conditions noted are these: HepG2, 72 h.
Test [5] deals with Hep 3B2. Nature of the test: Antiproliferative activity against human Hep3B cells assessed as reduction in cell viability at 50 uM incubated for 72 hrs by MTT assay relative to control. It counts as functional.

Turning to `COC(=O)c1ccc(-n2cc(CCCOS(=O)(=O)c3cccc(C)c3)nn2)cc1`, the result in test [1] was inactive.

Consider `COC(=O)c1ccc(-n2cc(CCCOS(=O)(=O)c3ccc(C(C)C)cc3)nn2)cc1`, for which the outcome in test [1] was inactive.

Take `COC(=O)c1ccc(-n2cc(CCCOS(=O)(=O)c3cccc(OC)c3)nn2)cc1`: the fold change (FC) in test [1] was found to be 1.9. Also, the IC50 in the test with Hep 3B2 [2] is 20.9 µM; in the test on HepG2 [3], 36.9 µM.

`COC(=O)c1ccc(-n2cc(CCCOS(=O)(=O)c3ccc(C)cc3)nn2)cc1`: the outcome in test [1] was Active. The inhibition at 50 µM in the test with HepG2 [4] and in the test with Hep 3B2 [5] was 0% throughout. The half-inhibitory concentration (IC50) with Hep 3B2 [2] and with HepG2 [3] was over 50 µM throughout.

Turning to `COC(=O)c1ccc(-n2cc(CCCOS(=O)(=O)c3cccc(F)c3)nn2)cc1`, the fold change (FC) in test [1] came out at 1.4. Moreover, the inhibition at 50 µM in the test with HepG2 [4] and with Hep 3B2 [5] was 0% in each case. Besides, the IC50 with Hep 3B2 [2] and with HepG2 [3] was over 50 µM each time.

Regarding `CCc1ccc(S(=O)(=O)OCCCc2cn(-c3ccc(C(=O)OC)cc3)nn2)cc1`, in test [1], the outcome was Active.

`COC(=O)c1ccc(-n2cc(CCCOS(=O)(=O)c3ccc(-c4ccccc4)cc3)nn2)cc1`: the fold change (FC) in test [1] was found to be 2.3. Further, the IC50 was found to be 26 µM in the test on Hep 3B2 [2] and 46.2 µM with HepG2 [3].

For the molecule `CNC(=O)c1ccc(S(=O)(=O)OCCCc2cn(-c3ccc(C(=O)OC)cc3)nn2)cc1`, the result in test [1] was inactive.

For the molecule `COC(=O)c1ccc(-n2cc(CCCOS(=O)(=O)c3ccc(OC)cc3)nn2)cc1`, in test [1], the outcome was Active.

For `COC(=O)c1ccc(-n2cc(CCCOS(=O)(=O)c3ccccc3C)nn2)cc1`, in test [1], the fold change (FC) worked out at 2. The inhibition at 50 µM in the test with HepG2 [4] and in the test with Hep 3B2 [5] was 0% throughout. Besides, the 50% inhibitory concentration (IC50) with Hep 3B2 [2] and with HepG2 [3] was over 50 µM in each case.

For the molecule `COC(=O)c1ccc(-n2cc(CCCOS(=O)(=O)c3cccc(Cl)c3)nn2)cc1`, the outcome in test [1] was inactive.

As to `COC(=O)c1ccc(-n2cc(CCCOS(=O)(=O)c3cccc(C#N)c3)nn2)cc1`, the result in test [1] was Active.

Turning to `COC(=O)c1ccc(-n2cc(CCCOS(=O)(=O)c3ccc(I)cc3)nn2)cc1`, in test [1], the fold change (FC) worked out at 1.7. Also, the concentration for half-maximal inhibition (IC50) with Hep 3B2 [2] was 25.3 µM; in the test with HepG2 [3], 17.5 µM.

With `COC(=O)c1ccc(-n2cc(CCCOS(=O)(=O)c3cccc(C(=O)OC)c3)nn2)cc1`, the result in test [1] was inactive.

Take `COC(=O)c1ccc(-n2cc(CCCOS(=O)(=O)c3ccc(C(=O)OC)cc3)nn2)cc1`: the result in test [1] was Active.

As for `COC(=O)c1ccc(-n2cc(CCCOS(=O)(=O)c3ccc(C#N)cc3)nn2)cc1`, the outcome in test [1] was Active.

`COC(=O)c1ccc(-n2cc(CCCOS(=O)(=O)c3ccccc3)nn2)cc1`: the outcome in test [1] was inactive.

`CCc1cccc(S(=O)(=O)OCCCc2cn(-c3ccc(C(=O)OC)cc3)nn2)c1`: the outcome in test [1] was inactive.

In general, IC50 refers to the concentration that inhibits the measured activity by half. By inhibition is commonly meant the relative decrease from the control value, in per cent.
